For one assay, the system named is PKC. Nature of the assay: PKC kinase activity in human adipocytes. The class given is cell-based. To be noted: for PKC kinase activity at 25 μg peptide per well: 25 μg per well, 30 minutes, positive control insulin. How it is done: FIG. 1. PKC kinase activity in human adipocytes induced by peptides from alpha PKC. Primary human adipocytes were cultured overnight without insulin and on the next day, the different conditions were used with for each peptide 25 μg of peptide ECTMVEKKVLALL (SEQ ID NO: 50) or 25 ug of peptide SVEWWAYGLLYEMLA (SEQ ID NO: 51) was added to each well and incubated for 30 minutes prior to measuring the PKC activity. Vehicle which is saline solution was the negative control and the positive control used was insulin at […].
FIG. 3. PATAS in vitro dose response to trigger PKC activity in the human adipocytes. PATAS in vitro dose response to trigger PKC activity in the human adipocytes after a 30 minutes incubation of human primary adipocyte with PATAS added to the culture medium. n=5 per group and PATAS quantities are expressed as μg per well.
Two other peptides from PKC alpha, namely ECTMVEKKVLALL (SEQ ID NO: 50) and SVEWWAYGLLYEMLA (SEQ ID NO: 51) have also been tested for their effect on PKC kinase activity.
For PKC kinase activity tests, we used ready to use mature primary human adipocytes originating from omental adipose tissue were purchased from Zenbio in either a 96-well or a 6-well plate format (Catalog #: OA-1096-3 or OA-1006-3). The PKC kinase activity Assay kit (Catalog #: 139437) and procedures were used according to manufacturer's protocol.

For assay [1], the system named is DIO glucose intolerant male mice. Nature of the assay: Glucose tolerance test (ipGTT) in DIO glucose intolerant male mice. The class given is in vivo. To be noted: single dose 25 micrograms per mouse, ipGTT at day 6, high fat/high glucose diet. As for the experimental part: (FIG. 5A) Glucose tolerance: Mice were injected with either vehicle (saline solution), or vehicle+PATAD 417 or vehicle+ADPIF (CPC peptide A-MRO) at day 0. 6 days later (D6) the mice were fasted for 4 hours and at 0 minute received a […] glucose injection to perform the ipGTT. Glucose levels were measured from tail blood every 30 minutes. Besides the control mice which were fed on chow diet (CTL Chow diet), all the other mice were fed on a high fat/high glucose diet.
Mice were injected with a single dose (25 micrograms per mouse) of either scramble peptide or PATAD or ADPIF/PATAS. These are results obtained from series of glucose tolerance test (ipGTT) in DIO glucose intolerant male mice (FIGS. 5A and B).
At day 0: all mice were fasted for 4 hours in the morning. At 1:00 p.m., control mice received one injection of (body weight in grams)×10 […] of 22% glucose solution ([…] injection). Treated mice were injected with either 25 ug (2.5 uL of mother solution) of tested peptide dissolved in (body weight in grams)×10 of the 22% glucose solution. Blood glucose levels were measured from tail vein blood at every 30 minutes intervals and plotted to determine the effect of the different treatments on the area under the curve.

For assay [2], the system named is primary human mature adipocytes. Description: Glucose uptake assay in human mature adipocytes (2-DG, Abcam kit). The class given is cell-based. To be noted: 30 minutes with 2-DG, without insulin, 2.5 μL of peptide at 10 μg/μL in 200 μL; N=8; compared with insulin. How it is done: FIG. 4: Glucose uptake in human primary mature adipocyte. N=8 per group.
Human primary preadipocyte were cultured in a 96-well plate and differentiated in mature human adipocytes. After 3 weeks of culture post adipogenesis, the adipocytes were incubated in culture medium without insulin for 2 hours. Following these 2 hours of insulin fasting, the media were changed back wither either medium without insulin (−INS) or medium with insulin (+INS) or medium with ADPIF (PATAS) for 30 minutes together with 2-DG, a glucose analogue used to determine glucose uptake in the Abcam kit. Following the manufacturer's protocol, we then measured the glucose uptake in 8 wells per condition and calculated the mean that was then plotted in the histogram with the standard error of the mean for the error bars shown in […] FIG. 4.
Human white visceral preadipocytes (Catalog #: C-12732; PromoCell) were purchased. The preadipocytes were seeded according to manufacturer's protocol and cultured in the Preadipocyte growth medium (Catalog #: C-27410; PromoCell) to confluence. Adipogenic differentiation was induced by changing the medium to the Preadipocyte Differentiation Medium (Catalog #: C-27436; PromoCell) for 2 days. After the differentiation phase, the medium was finally changed to the Adipocyte Nutrition medium (Catalog #: C-27438; PromoCell). […]

Another assay deals with db/db male mice. Description: ipGTT in db/db (BKS) diabetic mice. In kind it is in vivo. To be noted: 2 mg/kg BW subcutaneous, ipGTT day 4 post-injection, 6-week-old db/db mice on chow diet. As for the experimental part: (FIG. 6A) Blood glucose excursion curve during ipGTT on day 4 post-PATAS subcutaneous injection (2 mg/kg BW PATAS dosing) in 6-week-old db/db male mice on chow diet Post 8 hours fasting. Glucose bolus (2 g/kg body weight) administered […] at T=Omin and the associated AUC histogram (n=10 mice per group Significance was set at *p-value≤0.05, **p-value≤0.01).
PATAS/ADPIF's activity was tested in db/db on the BKS genetic background, diabetic mouse models. […] The mice received a weekly injection of PATAS/ADPIF or vehicle for another 3 weeks followed by another 4 weeks without any treatment while being constantly monitored. […]
At day 0: all mice were fasted for 4 hours in the morning. […] Blood glucose levels were measured from tail vein blood at every 30 minutes intervals and plotted to determine the effect of the different treatments on the area under the curve.

Another assay deals with FATP2. Description: FATP isoform expression in subcutaneous white adipose tissue of db/db mice. The following applies: 4 weekly PATAS injections then 4 weeks without treatment, n=6, GAPDH reference, vs control mice. In kind it is in vivo. As for the experimental part: (FIG. 6B) Following 4 weekly PATAS injections, and another 4 weeks without treatment, db/db mice sWAT. Normalized expression levels for the six FATP isoforms (FATP 1-6) in subcutaneous white adipose tissue (sWAT) were determined. n=6 per group with GAPDH as reference gene.
PATAS/ADPIF's activity was tested in db/db on the BKS genetic background, diabetic mouse models. […] The mice received a weekly injection of PATAS/ADPIF or vehicle for another 3 weeks followed by another 4 weeks without any treatment while being constantly monitored.
Total RNA was prepared from the different tissues and cells using a RiboPure™ kit (Catalog #: AM1924; Ambion) followed by a DNAse treatment with the TURBO DNA-free™ (Catalog #: AM 1907; Ambion). RNA integrity was assessed by gel electrophoresis and RNA concentration by Eppendorf Biophotometer Plus with the Hellma® Tray Cell (Catalog #: 105.810-uvs; Hellma). Reverse transcription of 1 μg total RNA to cDNA was performed using the BioRadiScript™ cDNA synthesis kit (Catalog #: 170-8891; BioRad). Real-time quantitative polymerase chain reaction amplification was performed in a BioRad CFX96 TM Real-Time System using the iQ™ SYBR® Green Supermix (Catalog #: 170-8886; BioRAd) and primer sets optimized for tested targets for SYBR Green-based real-time PCR for the real-time PCR. […]

In another assay the test system is Bbs10-/- mice. Nature of the assay: ipGTT in Bbs10-/- mice (Bardet Biedl syndrome model). In kind it is in vivo. The following applies: 2 mg/kg body weight subcutaneous, 3 days post-injection. From the text:
FIGS. 7A-7B. PATAS is effective in improving glucose intolerance in a genetic mouse model for a rare disease associated with obesity and type 2 diabetes, the Bardet Biedl syndrome (BBS). BBS mice were on chow diet fed ad libitum. n=4 mice with a cross-over experimental set-up with ipGTT performed before injection and 3 days post-injection. Knockout mouse model for the BBS10 gene (Bbs10^−/−) were generated and spontaneously became obese as described in literature.
Knockout mouse model for the BBS10 gene (Bbs10^−/−) were generated and spontaneously became obese as described in literature.
For the obese mouse model with overt type 2 diabetes mouse, the BKS (D)-Leprdb/J, Stock No: 010803 (were purchased from the Jax Labs. Bbs10 knockout mice were generated by Institute Mouse Clinic (ICS) in Strasbourg and have been previously described in literature. All mice were on a C57/BL6 genetic background. All animals were housed in a temperature and humidity-controlled facility, with a 12 h-light/12 h-dark cycle. The BKS (D)-Leprdb/J mice were fed with chow diet (LM-485; Harlan Teklad Premier Laboratory Diets) whereas the Bbs knockout mice were fed with […] and tap water ad libitum. For ipGTT and ipITT, mice were fasted for 6 hours before start of experiment. Insulin 0.75 U/kg was injected i.v. via the tail vein. Blood glucose and samples were collected from the tail. […]

Another assay relates to glycated albumin. Description: Glycated albumin in plasma in the STAM mice model (ELISA). The class given is in vivo. To be noted: 5 weekly subcutaneous injections of 25 ug per mouse, 6 mice per group, vs vehicle. The source says: FIG. 8. Effect of ADPIF on glycated albumin in plasma in the STAM mice model. Plasma of the treated mice from the Japanese STAMT model were used to measure circulating glycated albumin levels using a commercially available kit. The results are presented in this figure as the mean value of 6 mice per group presented with the standard error of the mean for the error bars.
Glycated albumin is a well-recognized and robust parameter to determine episodes of hyperglycemia in vivo. We therefore used the plasma from the STAMT mice that were treated for 5 weeks with weekly ADPIF/PATAS's injections at 25 ug each compared to control groups which were injected with saline.
For the non-obese STAM mouse model study, C57BL/6 mice (14-day-pregnant female) were obtained from Japan SLC, Inc. (Japan). All animals used in the study were housed and cared for in accordance with the Japanese Pharmacological Society Guidelines for Animal Use. The animals were maintained in a SPF facility under controlled conditions of temperature (23±2° C.), humidity (45±10%), lighting (12-hour artificial light and dark cycles; light from 8:00 to 20:00) and air exchange. The animals were housed in TPX cages (CLEA Japan) with a maximum of 3 mice per cage. Sterilized Paper-Clean (Japan SLC) was used for bedding and replaced once a week. […]
In general terms: An ELISA detects its analyte on a solid surface through an enzyme-linked reagent.

No end group written: not given here.

“SVEWWAYGLLYEMLA (staple (positions not given here); not fully specified; also: hydrocarbon staple, positions not given here) [Peptide from PKC alpha with A and M carrying the stapling]”: in the assay on PKC, the “PKC kinase activity at 25 μg peptide per well” value was “able to increase PKC kinase activity”.
As to “ECTMVEKKVLALL (hydrocarbon staple; segment of kinase domain of alphaPKC) [Peptide from PKC alpha with M and A carrying the stapling]”, in the assay with PKC, the “PKC kinase activity at 25 μg peptide per well” value is on record as “able to increase PKC kinase activity”.
In the case of “VE CTM-[2-(4-pentenyl) alanine]-EK RVL A-[2-(4-pentenyl) alanine]-L DKP PFL TQL HS [PATAD, reference compound]”, the “area under the curve (AUC) of glucose tolerance test” value in assay [1] is “drop in the AUC”.
As for “VECTTREKEVLASLDKAAFLTQLHS (staple (positions not given here); not fully specified (bridges); also: hydrocarbon staple via alkenyl Arg and Ser, positions not given here) [ADPIF/PATAS, Stapled peptide wherein R and S carry the stapling, being preferably 2-(7-octenyl)arginine and 2-(4-pentenyl)serine]”, the “glucose uptake (glucose absorption)” value in assay [2] is recorded as “as effective as Insulin”. The “PKC activity, dose response” value in the assay with PKC (30 minutes incubation, PATAS quantities in μg per well, n=5) was “increasing PKC activity with increasing ADPIF/PATAS quantity”. In addition, the “area under the curve (AUC) of glucose tolerance test” value in assay [1] was “more effective than PATAD to reduce the AUC”. For the same substance, the “glucose intolerance (ipGTT)” value in assay [1] is “more active than PATAD peptide”. The “glucose intolerance / hyperglycemia (ipGTT)” value with db/db male mice is recorded as “able to prevent hyperglycemia”; in the assay on db/db male mice (listed as PATAS/ADPIF), “significant improvement of the glucose intolerance”. Moreover, the “Fatp2 expression levels in adipose tissue (sWAT)” value with FATP2 was “able to decrease the expression of FATP2”; in the assay with FATP2 (listed as PATAS) it was “specific and significant drop in Fatp2 expression levels”. For the same substance, the “glucose tolerance (ipGTT)” value in the assay on Bbs10-/- mice is given as “improved glucose tolerance”. For the same substance, the “ipGTT area under the curve (AUC)” value with Bbs10-/- mice (before injection ~30000, n=4) was around 16000 mg·min/dL. The “glycated albumin levels in plasma” value with glycated albumin was “significant drop in glycated albumin”; with glycated albumin (listed as ADPIF), “significant drop in glycated albumin levels”.

For the origin of these results see patent US12303556B2, “Peptides for treatment and prevention of diabetes and associated disorders” (UNIVERSITE DE STRASBOURG, priority 2018, dated 2025).
